What was measured:
[1] = system: bedstraw; assay: Test B pre/postemergence bedstraw; assay type: in vivo, Galium aparine; settings: Preemergence
Outline: (§1)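 Herbicidal effect was estimated by eye on a ten-point control scale after plants spent twelve to sixteen days in a greenhouse following soil or foliar treatment. Foliar sprays targeted plants at one to four leaves; all doses were formulated in a non-phytotoxic solvent with surfactant.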

[2] = system: blackgrass; assay: Test B pre/postemergence blackgrass; assay type: in vivo, Alopecurus myosuroides
Outline: as §1

[3] = system: surinam grass; assay: Test B pre/postemergence surinam grass; assay type: in vivo, Brachiaria decumbens
Outline: as §1

[4] = system: cocklebur; assay: Test B pre/postemergence cocklebur; assay type: in vivo, Xanthium strumarium
Outline: as §1

[5] = system: corn; assay: Test B pre/postemergence corn; assay type: in vivo, Zea mays
Outline: as §1

[6] = system: crabgrass; assay: Test B pre/postemergence crabgrass; assay type: in vivo, Digitaria sanguinalis
Outline: as §1

[7] = system: giant foxtail; assay: Test B pre/postemergence giant foxtail; assay type: in vivo, Setaria faberii
Outline: as §1

[8] = system: morningglory; assay: Test B pre/postemergence morningglory; assay type: in vivo, Ipomoea hederacea
Outline: as §1

[9] = system: pigweed; assay: Test B pre/postemergence pigweed; assay type: in vivo, Amaranthus retroflexus
Outline: as §1

[10] = system: rape; assay: Test B pre/postemergence rape; assay type: in vivo, Brassica napus
Outline: as §1

[11] = system: soybean; assay: Test B pre/postemergence soybean; assay type: in vivo, Glycine max
Outline: as §1

[12] = system: sugar beet; assay: Test B pre/postemergence sugar beet; assay type: in vivo, Beta vulgaris
Outline: as §1

[13] = system: velvetleaf; assay: Test B pre/postemergence velvetleaf; assay type: in vivo, Abutilon theophrasti
Outline: as §1

[14] = system: wheat; assay: Test B pre/postemergence wheat; assay type: in vivo, Triticum aestivum
Outline: as §1

[15] = system: wild oat; assay: Test B pre/postemergence wild oat; assay type: in vivo, Avena fatua
Outline: as §1

[16] = system: purple nutsedge; assay: Test B pre/postemergence purple nutsedge; assay type: in vivo, Cyperus rotundus
Outline: as §1

[17] = system: rice; assay: Test B flood test rice; assay type: in vivo, Oryza sativa
Outline: (§2)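 Flood test on plants grown to the 2-leaf stage; treated plants kept in greenhouse twelve to sixteen days, then visually rated against controls on a 0 (no effect) to 10 (complete control) scale.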

[18] = system: smallflower flatsedge; assay: Test B flood test smallflower flatsedge; assay type: in vivo, Cyperus difformis
Outline: as §2

[19] = system: duck salad; assay: Test B flood test duck salad; assay type: in vivo, Heteranthera limosa
Outline: as §2

[20] = system: bamyardgrass; assay: Test B flood test barnyardgrass; assay type: in vivo, Echinochloa crus-galli
Outline: as §2

[21] = Postemergence, Rate 31 g/ha, visual rating, scale 0 to 10 (0 no effect, 10 complete control)
[22] = Postemergence, Rate 125 g/ha, scale 0 to 10, 0 is no effect, 10 is complete control
[23] = Postemergence, Rate 250 g/ha, scale 0 to 10, 0 is no effect, 10 is complete control
[24] = Preemergence, Rate 31 g/ha, visual rating, scale 0 to 10 (0 no effect, 10 complete control)
[25] = Preemergence, Rate 62 g/ha, scale 0 to 10 (0 no effect, 10 complete control)
[26] = Preemergence, Rate 125 g/ha, scale of 0 to 10 where 0 is no effect and 10 is complete control
[27] = Preemergence, Rate 250 g/ha, scale of 0 to 10 where 0 is no effect and 10 is complete control
[28] = Rate 62 g/ha, Postemergence, scale of 0 to 10 where 0 is no effect and 10 is complete control
[29] = Rate 31 g/ha, Pre-emergence section (flood test species), scale 0 to 10
[30] = Rate 62 g/ha, flood test species, Pre-emergence, visual evaluation after twelve to sixteen days
[31] = Rate 125 g/ha, under heading Pre-emergence, flood test species, visual evaluation after twelve to sixteen days
[32] = Rate 250 g/ha, Pre-emergence, flood-test species, scale 0 to 10, 0 is no effect, 10 is complete control

CC(C)N(C(=O)n1oc(=O)n([C@@H]2C[C@H]2C)c1=O)c1ccc(F)cc1 (relative stereo) [Compound 392]
1: B. signalgrass plant response rating [3, 28] | Crabgrass plant response rating [6, 21] | Soybean plant response rating [11, 21] | Soybean plant response rating [11, 28]
8: Plant response rating, Bedstraw ([1]; Rate 125 g/ha, scale of 0 to 10 where 0 is no effect and 10 is complete control) | Plant response rating, Blackgrass [2, 26] | Crabgrass plant response rating [6, 24] | Wheat plant response rating [14, 27]
3: Plant response rating, B. signalgrass [3, 26] | Plant response rating, Corn [5, 26] | Morningglory plant response rating [8, 21] | Plant response rating, Sugarbeets [12, 26] | Plant response rating, Velvetleaf [13, 26] | Plant response rating, Wheat [14, 26]
0: Bedstraw plant response rating ([1]; Rate 31 g/ha, visual rating, scale 0 to 10 (0 no effect, 10 complete control)) | B. signalgrass plant response rating [3, 21] | B. signalgrass plant response rating [3, 24] | Cocklebur plant response rating [4, 21] | Cocklebur plant response rating [4, 24] | Plant response rating, Cocklebur [4, 25] | Plant response rating, Cocklebur [4, 26] | Cocklebur plant response rating [4, 27] | Cocklebur plant response rating [4, 28] | Corn plant response rating [5, 21] | Plant response rating, Corn [5, 22] | Plant response rating, Corn [5, 23] | Corn plant response rating [5, 24] | Plant response rating, Corn [5, 25] | Corn plant response rating [5, 28] | Plant response rating, Morningglory [8, 25] | Plant response rating, Morningglory [8, 26] | Morningglory plant response rating [8, 27] | Redroot pigweed plant response rating [9, 21] | Redroot pigweed plant response rating [9, 28] | Rape plant response rating [10, 21] | Plant response rating, Rape [10, 23] | Plant response rating, Rape [10, 25] | Plant response rating, Rape [10, 26] | Rape plant response rating [10, 28] | Plant response rating, Soybean [11, 25] | Plant response rating, Soybean [11, 26] | Soybean plant response rating [11, 27] | Sugarbeets plant response rating [12, 21] | Plant response rating, Sugarbeets [12, 23] | Plant response rating, Sugarbeets [12, 25] | Sugarbeets plant response rating [12, 28] | Velvetleaf plant response rating [13, 21] | Plant response rating, Velvetleaf [13, 25] | Velvetleaf plant response rating [13, 28] | Wheat plant response rating [14, 21] | Plant response rating, Wheat [14, 25] | Wheat plant response rating [14, 28] | Wild oats plant response rating [15, 21] | Wild oats plant response rating [15, 28] | Nutsedge plant response rating [16, 21] | Plant response rating, Nutsedge [16, 23] | Plant response rating, Nutsedge [16, 25] | Plant response rating, Nutsedge [16, 26] | Nutsedge plant response rating [16, 27] | Nutsedge plant response rating [16, 28] | Rice plant response rating [17, 29] | Plant response rating, Rice (0 to 10 scale, 0 is no effect, 10 is complete control) [17, 30] | Rice plant response rating (0 to 10 scale, 0 is no effect, 10 is complete control) [17, 31] | Rice plant response rating [17, 32] | S. Flatsedge plant response rating [18, 29] | Plant response rating, S. Flatsedge (0 to 10 scale, 0 is no effect, 10 is complete control) [18, 30] | S. Flatsedge plant response rating (0 to 10 scale, 0 is no effect, 10 is complete control) [18, 31] | S. Flatsedge plant response rating [18, 32] | Ducksalad plant response rating [19, 29] | Plant response rating, Ducksalad (0 to 10 scale, 0 is no effect, 10 is complete control) [19, 30] | Ducksalad plant response rating (0 to 10 scale, 0 is no effect, 10 is complete control) [19, 31] | Ducksalad plant response rating [19, 32] | Barnyardgrass plant response rating [20, 29] | Plant response rating, Barnyardgrass (0 to 10 scale, 0 is no effect, 10 is complete control) [20, 30] | Barnyardgrass plant response rating (0 to 10 scale, 0 is no effect, 10 is complete control) [20, 31] | Barnyardgrass plant response rating [20, 32]
6: Plant response rating, Blackgrass [2, 25] | Plant response rating, Redroot pigweed [9, 23]
10: Bedstraw plant response rating ([1]; Rate 250 g/ha, scale of 0 to 10 where 0 is no effect and 10 is complete control) | Plant response rating, Blackgrass [2, 22] | Plant response rating, Blackgrass [2, 23] | Blackgrass plant response rating [2, 27] | Plant response rating, Crabgrass [6, 25] | Plant response rating, Crabgrass [6, 26] | Crabgrass plant response rating [6, 27] | Giant foxtail plant response rating [7, 24] | Plant response rating, Giant foxtail [7, 25] | Plant response rating, Giant foxtail [7, 26] | Giant foxtail plant response rating [7, 27] | Redroot pigweed plant response rating [9, 27] | Wild oats plant response rating [15, 27]
5: Plant response rating, B. signalgrass [3, 22] | Morningglory plant response rating [8, 28] | Rape plant response rating [10, 27] | Velvetleaf plant response rating [13, 27]
7: Blackgrass plant response rating [2, 21] | Blackgrass plant response rating [2, 28] | Plant response rating, B. signalgrass [3, 23] | Plant response rating, Crabgrass [6, 23] | Giant foxtail plant response rating [7, 21] | Giant foxtail plant response rating [7, 28] | Plant response rating, Morningglory [8, 23] | Plant response rating, Redroot pigweed [9, 26] | Sugarbeets plant response rating [12, 27]
9: B. signalgrass plant response rating [3, 27] | Corn plant response rating [5, 27] | Plant response rating, Giant foxtail [7, 22] | Plant response rating, Giant foxtail [7, 23] | Plant response rating, Wild oats [15, 26]
2: Blackgrass plant response rating [2, 24] | Plant response rating, B. signalgrass [3, 25] | Plant response rating, Cocklebur [4, 22] | Plant response rating, Cocklebur [4, 23] | Plant response rating, Crabgrass [6, 22] | Crabgrass plant response rating [6, 28] | Plant response rating, Redroot pigweed [9, 25] | Plant response rating, Soybean [11, 23] | Plant response rating, Velvetleaf [13, 23] | Plant response rating, Wild oats [15, 25]

From US6737383B1, “Herbicidal oxadiazolidines” (priority 1999, dated 2004)
